Laboratory results taken from PubChem BioAssay (NCI).
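48-hour exposure; five concentrations; linearly interpolated endpoints. GI50 marks 50% less growth. TGI denotes the concentration required for complete inhibition of growth.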

What was measured:
Experiment in all cases: NCI-60 cell line screen, 48 h
[1] = system: NCI-H23 lung
[2] = system: UACC-257 melanoma
[3] = system: NCI-H522 lung
[4] = system: RXF 393 renal
[5] = system: SK-MEL-2 melanoma
[6] = system: SR leukemia
[7] = system: BT-549 breast
[8] = system: MCF7 breast
[9] = system: OVCAR-4 ovarian
[10] = system: HL-60(TB) leukemia
[11] = system: CAKI-1 renal
[12] = system: ACHN renal
[13] = system: OVCAR-8 ovarian
[14] = system: M14 melanoma
[15] = system: A498 renal
[16] = system: SK-OV-3 ovarian
[17] = system: IGROV1 ovarian
[18] = system: SF-268 CNS
[19] = system: MALME-3M melanoma
[20] = system: NCI-H226 lung
[21] = system: K-562 leukemia
[22] = system: HOP-62 NSCLC
[23] = system: COLO 205 colon
[24] = system: OVCAR-3 ovarian
[25] = system: HCC-2998 colon
[26] = system: HCT-116 colon
[27] = system: HS 578T breast
[28] = system: SNB-75 CNS

Q: What does the source list for `Clc1ccc2nc(Cl)c3ccccc3c2c1`?
A: GI50 [1]: 74.9 µM; TGI [1]: > 100 µM; GI50 [2]: > 100 µM; TGI [2]: > 100 µM; GI50 [3]: 63.4 µM; TGI [3]: > 100 µM; GI50 [4]: 9.15 µM; TGI [4]: 30.4 µM; GI50 [5]: 24.3 µM; TGI [5]: 60.8 µM; GI50 [6]: 22 µM; TGI [6]: > 100 µM; GI50 [7]: 36.1 µM; TGI [7]: > 100 µM; GI50 [8]: 96 µM; TGI [8]: > 100 µM; GI50 [9]: 2.03 µM; TGI [9]: 5.02 µM; GI50 [10]: > 100 µM; TGI [10]: > 100 µM; GI50 [11]: > 100 µM; TGI [11]: > 100 µM; GI50 [12]: 4.04 µM; TGI [12]: > 100 µM; GI50 [13]: 11.8 µM; TGI [13]: > 100 µM; GI50 [14]: > 100 µM; TGI [14]: > 100 µM; GI50 [15]: 2.22 µM; TGI [15]: 9.85 µM; GI50 [16]: 5.17 µM; TGI [16]: 21.2 µM; GI50 [17]: 6.21 µM; TGI [17]: 86.8 µM; GI50 [18]: 17.2 µM; TGI [18]: > 100 µM; GI50 [19]: 10.7 µM; TGI [19]: 71.1 µM; GI50 [20]: 14 µM; TGI [20]: > 100 µM; GI50 [21]: > 100 µM; TGI [21]: > 100 µM; GI50 [22]: 11.5 µM; TGI [22]: 64.2 µM; GI50 [23]: 46.8 µM; TGI [23]: > 100 µM; GI50 [24]: 24.7 µM; TGI [24]: > 100 µM; GI50 [25]: > 100 µM; TGI [25]: > 100 µM; GI50 [26]: 4.34 µM; TGI [26]: 22.1 µM; GI50 [27]: 8.21 µM; TGI [27]: 72 µM; GI50 [28]: 2.09 µM; TGI [28]: 8.16 µM
